Assay [1] deals with T1, human sex hormone-binding globulin (SHBG) (Homo sapiens, UniProt P04278).
T1 sequence (P04278 30-402): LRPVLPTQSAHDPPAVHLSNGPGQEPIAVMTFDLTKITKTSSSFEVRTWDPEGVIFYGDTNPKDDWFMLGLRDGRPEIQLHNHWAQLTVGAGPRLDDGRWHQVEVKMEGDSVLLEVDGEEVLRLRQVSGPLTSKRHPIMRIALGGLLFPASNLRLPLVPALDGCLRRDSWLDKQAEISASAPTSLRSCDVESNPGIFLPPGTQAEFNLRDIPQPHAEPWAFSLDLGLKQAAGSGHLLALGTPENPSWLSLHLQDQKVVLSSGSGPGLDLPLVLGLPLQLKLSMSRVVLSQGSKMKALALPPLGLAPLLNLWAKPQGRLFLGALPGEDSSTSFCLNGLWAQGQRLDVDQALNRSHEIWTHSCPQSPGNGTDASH
The conditions noted are these: cited from earlier work.

Assay [2] concerns CAMP phosphodiesterase. The conditions noted are these: cited from earlier work.
Assay [3] in a line: In vitro DPPH free radical scavenging antioxidant potency. The conditions noted are these: Tris-HCl buffer pH 7.4, 45 minutes in dark, absorbency at 517 nm, references probucol and α-tocopherol. The procedure:
In vitro evaluation of free radical scavenging antioxidant potency:
Antioxidant activity of the compounds ((−)-Matairesinol and (−)-wikstromol) were tested for their capacity/potency to scavenger most widely used free radical 2,2-diphenyl-1-[…] radical (DPPH). The well-accepted and tested probucol and α-tocopherol were taken as reference compounds. 1 mg/ml DMSO concentration of the compounds [(−)-Matairesinol and (−)-wikstromol] were prepared and subsequently, serially diluted to lower concentrations with DMSO […] of test compounds were reconstituted to 1 ml in Tris-HCl buffer (pH 7.4) equal volume of 500 μm of DPPH radical dissolved in ethanol was reacted with this. After incubation for 45 minutes in dark, the absorbency at 517 nm was recorded. Radical with no compound was taken as control for calculation of % radical scavenging activity. All the readings were recorded in triplicate.

A short description of assay [4]: Effectiveness on administration at 250 mg/kg of body weight. The assay is classed as in vivo. The conditions noted are these: dosage of 250 mg/kg of body weight.
The test system of assay [5] is p-388 lymphocyte leukemia. The conditions noted are these: cited from earlier work.
Assay [6] has as its system HIV. The conditions noted are these: cited from earlier work.

Molecules are shown by their SMILES.

Turning to `COc1cc(C[C@H]2COC(=O)[C@@H]2Cc2ccc(O)c(OC)c2)ccc1O` [(−)-Matairesinol, 4,4^1-dihydroxy-3, 3^1-dimethoxylignan-9, 9^1-olide], the “binding of H-labeled 5α-dihydrotestosterone (DHT) to human SHBG” value in assay [1] is given as “reduce the binding”. For the same compound, in assay [2], the “CAMP phosphodiesterase inhibition activity” value is reported as “exhibits CAMP phosphodiesterase inhibition activity”. Moreover, the “antioxidant/radical scavenging potency compared with reference standards” value in assay [3] is on record as “more potent antioxidant/radical scavenging potency than reference standards”. The effectiveness when administered result in assay [4] is listed as “highly effective”.
As for `COc1cc(C[C@@H]2COC(=O)[C@@]2(O)Cc2ccc(O)c(OC)c2)ccc1O` [(−)-wikstromol, 4,4^1,8-trihydroxy-3, 3^1-dimethoxyliganan-9, 9^1-olide], the “activity against p-388 lymphocyte leukemia” value in assay [5] was “active against p-388 lymphocyte leukemia”. The anti-HIV activity result in assay [6] is “anti-HIV activity”. In addition, in assay [3], the “antioxidant/radical scavenging potency compared with reference standards” value is “more potent antioxidant/radical scavenging potency than reference standards”. Besides, the effectiveness when administered entry in assay [4] is “highly effective”.

The values above are taken from US6458831B1, “Use of two plant phenols in the treatment of arteriosclerosis” (Council of Scientific and Industrial Research, priority 2000, dated 2002).
